Numbered stars: 1 amine (or outer) side, 2 acyl side, 3 side chain; on linkers, the order of the positions; unused ones are H or OH. Bridge positions count the residues as written; N and C are the ends. Side chains are listed from the residue outwards. Peptide text beside a SMILES is read from it. * marks the point of attachment. C20 diacid = O=C(O)CCCCCCCCCCCCCCCCCCC(=O)*; γGlu = O=C(O)[C@H](CCC(=O)[*:2])N[*:1]
Legend:
[1] = target: T1, human calcitonin receptor (Homo sapiens, UniProt P30988); test: ASSAY (VII) binding to the human calcitonin receptor (SPA, 125I-Calcitonin); settings: read-out: hCTR bind IC50;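 note: cell membranes (35 ng/µL) combined with SPA beads in 40 µL of pH 7.4 Hepes buffer, 384-well format, signal counted on a TopCounter instrument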
T1 construct: expressed in transfected cells
T1 sequence (P30988 25-474): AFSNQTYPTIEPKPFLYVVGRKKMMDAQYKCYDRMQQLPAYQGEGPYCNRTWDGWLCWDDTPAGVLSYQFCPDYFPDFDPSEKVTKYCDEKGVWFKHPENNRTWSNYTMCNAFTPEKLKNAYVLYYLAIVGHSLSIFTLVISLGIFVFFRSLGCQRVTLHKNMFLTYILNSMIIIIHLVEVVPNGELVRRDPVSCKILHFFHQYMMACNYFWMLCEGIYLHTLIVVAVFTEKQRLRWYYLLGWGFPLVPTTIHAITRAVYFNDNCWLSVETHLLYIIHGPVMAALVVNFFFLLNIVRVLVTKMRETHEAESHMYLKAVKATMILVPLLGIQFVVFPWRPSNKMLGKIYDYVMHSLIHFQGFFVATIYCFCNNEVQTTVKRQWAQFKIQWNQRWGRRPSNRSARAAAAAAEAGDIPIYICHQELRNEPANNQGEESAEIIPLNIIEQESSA

[2] = target: T2, human amylin receptor (membranes from Amylin 3(a)/CRE-luc cells) (Homo sapiens, UniProt O60896+P30988); test: ASSAY (V) binding to the human amylin receptor (SPA, 125I-rat amylin); settings: for IC50: Table 4, read-out: hAmylin-R bind IC50;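 for all read-outs here: competition binding of cell membranes (35 ng/µL) mixed with SPA beads in 384-well plates at 40 µL total volume, read by scintillation counting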
T2 construct: expressed in transfected cells
T2 sequence (P30988 25-474): T1 sequence (P30988 25-474)
T2 sequence (O60896 24-148 partner): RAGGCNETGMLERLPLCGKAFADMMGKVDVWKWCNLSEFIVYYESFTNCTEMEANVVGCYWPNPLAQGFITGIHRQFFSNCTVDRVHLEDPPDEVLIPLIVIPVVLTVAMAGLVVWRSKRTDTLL

[3] = target: T3, human amylin 3(a) receptor (human calcitonin receptor + RAMP-3) in BHK570 cells (Homo sapiens, UniProt O60896+P30988); test: ASSAY (II)a functional assay, human amylin receptor (CRE luciferase); format: cell-based; settings: for EC50: human amylin receptor functional potency, assay (II), read-out: hAmylin-R funct. EC50
T3 construct: expressed in transfected cells
Method in brief: (§1)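 BHK cells stably carrying a CRE-luciferase reporter plus calcitonin receptor, or calcitonin receptor with RAMP-3 for the amylin 3(a) receptor, were seeded and kept overnight at 37° C. Compounds were added in assay medium with 10% FBS and 10 mM Hepes, pH 7.4, for 3 hours at 37° C, then luminescence was counted.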

[4] = target: T4, human calcitonin (a) receptor in BHK570 cells (Homo sapiens, UniProt P30988); test: ASSAY (II)a functional assay, human calcitonin receptor (CRE luciferase); format: cell-based; settings: read-out: hCTR funct. EC50
T4 construct: expressed in transfected cells
T4 sequence (P30988 25-474): T1 sequence (P30988 25-474)
Method in brief: as §1

[5] = ASSAY (IX) pK, determination of T½ in mini-pig; format: in vivo; settings: male, Göttingen, minipig, plasma, iv, 2 nmol/kg
Male Sprague-Dawley rats = test: ASSAY (XI) single subcutaneous administration, food intake monitored for 48 hours in rats; format: in vivo, rat; settings: 30 nmol/kg
Method in brief: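 Male Sprague-Dawley rats from Taconic Europe, weighing about 250 g on the test day, were singly housed in an online food intake monitoring system (Ellegaard MBRose, Denmark). Before the study they were acclimatized to a reversed light cycle, with lights on from 10 PM to 10 AM. Each rat then received one subcutaneous dose of the analogue, and data are reported as mean±SEM.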

Male Wistar rats = test: ASSAY (XII) effect from single subcutaneous administration on plasma calcium in rats; format: in vivo, rat
Method in brief: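 Male Wistar rats (~250 g), groups of five, received a single subcutaneous dose at time 0. Blood drawn at −15 min, 1, 2, 4, 7, 12 and 24 h; total calcium measured in heparin plasma, reported as mean±SEM.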

[6] = ASSAY (X) pK, determination of T½ in rat; format: in vivo; settings: male, Sprague Dawley, plasma, iv, 20 nmol/kg
[7] = Table 5, selectivity, hCTR bind IC50 / hAmylin-R bind IC50
[8] = Table 5a, selectivity, hCTR bind IC50 / hAmylin-R bind IC50
[9] = Table 5b, selectivity, hCTR bind IC50 / hAmylin-R bind IC50
[10] = Table 5c, selectivity, hCTR bind IC50 / hAmylin-R bind IC50
[11] = Table 7, human binding selectivity, included for comparison
[12] = Table 7a (preferred compounds), human binding selectivity, included for comparison
[13] = ratio of human calcitonin receptor binding IC50 to human amylin receptor binding IC50
[14] = hCTR funct. EC50 divided by hAmylin-R funct. EC50
[15] = hCTR funct. EC50 over hAmylin-R funct. EC50
[16] = human functional selectivity: hCTR funct. EC50 / hAmylin-R funct. EC50

SMILES	IC50 [1] [nM]	IC50 [2] [nM]	Ratio hCT/hAmylin binding [2, 7]	Ratio hCT/hAmylin binding [2, 8]	Ratio hCT/hAmylin binding [2, 9]	Ratio hCT/hAmylin binding [2, 10]	Ratio hCT/hAmylin binding [2, 11]	Ratio hCT/hAmylin binding [2, 12]	Ratio hCT/hAmylin binding [2, 13]	Ratio hCT/hAmylin funct. [3, 14]	Ratio hCT/hAmylin funct. [3, 15]	EC50 [3] [nM]	Ratio hCT/hAmylin funct. [3, 16]	EC50 [4] [nM]	further results
CC[C@H](C)[C@H](NC(=O)[C@H](C)NC(=O)CNC(=O)[C@H](Cc1ccccc1)NC(=O)[C@H](CC(N)=O)NC(=O)[C@@H]1CCCN1C(=O)[C@H](CO)NC(=O)[C@H](CO)NC(=O)[C@H](Cc1c[nH]cn1)NC(=O)[C@H](CCCNC(=N)N)NC(=O)[C@H](CC(C)C)NC(=O)[C@H](Cc1ccccc1)NC(=O)[C@H](Cc1c[nH]cn1)NC(=O)[C@H](C)NC(=O)[C@H](CC(C)C)NC(=O)[C@H](CCCNC(=N)N)NC(=O)[C@H](CCC(N)=O)NC(=O)[C@@H](NC(=O)[C@H](C)NC(=O)[C@@H]1CSSC[C@H](NC(=O)[C@@H](N)CCCCNC(=O)CC[C@H](NC(=O)CCCCCCCCCCCCCCCCCCC(=O)O)C(=O)O)C(=O)N[C@@H](CC(N)=O)C(=O)N[C@@H]([C@@H](C)O)C(=O)N[C@@H](C)C(=O)N[C@@H]([C@@H](C)O)C(=O)N1)[C@@H](C)O)C(=O)N1CCC[C@H]1C(=O)N[C@@H](CO)C(=O)N[C@@H](CO)C(=O)N[C@H](C(=O)N[C@@H](CC(N)=O)C(=O)N[C@H](C(=O)NCC(=O)N[C@@H](CCCNC(=N)N)C(=O)N[C@@H](CC(N)=O)C(=O)N[C@H](C(=O)N[C@@H](Cc1ccc(O)cc1)C(N)=O)[C@@H](C)O)C(C)C)[C@@H](C)O [Example 85] (H-K([γGlu-C20 diacid])CNTATCATQRLAHFLRHSSPNFGAIPSSTNVGRNTY-NH2; disulfide 2-7 (inferred); N-terminus assumed)	80.4	0.876	91.8	91.8	91.8	91.8	91.8	91.8	91.8	26.6	26.6	0.146	26.6	3.88	half-life [5]: 85 h
CC[C@H](C)[C@H](NC(=O)[C@H](C)NC(=O)CNC(=O)[C@H](Cc1ccccc1)NC(=O)[C@H](CC(N)=O)NC(=O)[C@@H]1CCCN1C(=O)[C@H](CO)NC(=O)[C@H](CO)NC(=O)[C@H](Cc1c[nH]cn1)NC(=O)[C@H](CCCNC(=N)N)NC(=O)[C@H](CC(C)C)NC(=O)[C@H](Cc1ccccc1)NC(=O)[C@H](CCC(=O)O)NC(=O)[C@H](C)NC(=O)[C@H](CC(C)C)NC(=O)[C@H](CCCNC(=N)N)NC(=O)[C@H](CCC(N)=O)NC(=O)[C@@H](NC(=O)[C@H](C)NC(=O)[C@@H]1CSSC[C@H](NC(=O)[C@@H](N)CCCCNC(=O)CC[C@H](NC(=O)CC[C@H](NC(=O)CCCCCCCCCCCCCCCCCCC(=O)O)C(=O)O)C(=O)O)C(=O)N[C@@H](CC(N)=O)C(=O)N[C@@H]([C@@H](C)O)C(=O)N[C@@H](C)C(=O)N[C@@H]([C@@H](C)O)C(=O)N1)[C@@H](C)O)C(=O)N1CCC[C@H]1C(=O)N[C@@H](CO)C(=O)N[C@@H](CO)C(=O)N[C@H](C(=O)N[C@@H](CC(N)=O)C(=O)N[C@H](C(=O)NCC(=O)N1CCC[C@H]1C(=O)N[C@@H](CCCNC(=N)N)C(=O)N[C@H](C(=O)N[C@@H](Cc1ccc(O)cc1)C(N)=O)[C@@H](C)O)C(C)C)[C@@H](C)O [Example 110] (H-K([γGlu-γGlu-C20 diacid])CNTATCATQRLAEFLRHSSPNFGAIPSSTNVGPRTY-NH2; disulfide 2-7)	17.5	0.326	53.6	53.6	53.6	53.6	53.6	53.6	53.6	29.3	29.3	0.278	29.3	8.16	Food intake red (%) 0-24 h (Male Sprague-Dawley rats; single s.c., 0-24 h, compared to vehicle): 68%; Food intake red (%) 24-48 h (Male Sprague-Dawley rats; single s.c., 24-48 h, compared to vehicle): 31%; food intake monitored over 48 hours (Male Sprague-Dawley rats; single subcutaneous administration, versus vehicle): reduces food intake; Plasma calcium red (%) 0-12 h (maximal) (Male Wistar rats; single s.c., 30 nmol/kg, 0-12 h, compared to vehicle): 8%; suppression of plasma calcium level relative to vehicle (Male Wistar rats; single subcutaneous 30 nmol/kg, monitored over 24 hours): None of the example compounds at 30 nmol/kg trigger a notable suppression of the calcium level; half-life [6]: 14 h
